Results reported in patent US8138188B2, “Melanocortin type 4 receptor agonist piperidinoylpyrrolidines” (Pfizer Inc., priority 2006, dated 2012).

Tests used:
[1] = In vitro metabolism rate determination, human liver microsome (HLM) assay; format: in vitro ADME; conditions: human liver microsomes, substrate 1 μM; read-out: HLM (intrinsic clearance)
Description: (§1) In vitro Metabolism Rate Determination (Human Liver Microsome (HLM); Rat Liver Microsome (RLM) Assay)
(§2) Many drugs are metabolised by the cytochrome P450 mono-oxygenase system. This enzyme is found in high concentrations in the liver and is bound to the endoplasmic reticulum of the hepatocyte. The enzyme system can be obtained in semi-purified state by the preparation of the hepatic microsomal fractions. Determining a compound's in vitro half-life in such a system provides a useful indicator of metabolic stability.
(§3) Methodology For In Vitro Rate Determination Using Hepatic & Supermix Microsomes
(§4) The method outlined below is for a total incubation volume of 1.5 ml.
(§5) 1. The following mixture is prepared in a test tube:
(§6) 2. Defrost microsomes at room temperature and add sufficient microsomes to give a final concentration of 0.5 nmol cytochrome P450/ml of incubation e.g. for a 1.5 ml incubation, the volume of microsomes to be added is:
(§7) [formula] 3. Add sufficient MilliQ water to give a total incubation volume of 1.425 ml. 4. Remove 237.5 μl of incubation mix and place in test tube for PNA positive control. Add 2.5 μl of PNA solution, whirlimix, and put tube into a rack in the thermostatically controlled shaking water bath 5. Remove 100 μl for no substrate control and dispense in test tube. Place test tube in a rack in the thermostatically controlled shaking water bath. 6. Add substrate to the incubation. The substrate should be at an initial concentration of 1 μM. The volume of substrate required in the remaining 1.162.5 ml incubation is calculated as follows:
(§8) [formula] • N.B. The volume of organic solvent added should not exceed 0.1% of the total incubation volume. 7. Remove 100 μl of incubation mix into test tube for no cofactor control. Whirlimix and put into a rack in the thermostatically controlled shaking water bath. 8. Pre-incubate the tube containing the incubation mix, also positive control and no cofactor tubes in the thermostatically controlled shaking water bath set at 37° C. for approx 5 min. 9. Add NADP to initiate reaction (75 μl to each 1.162.5 ml incubation mix, 12.5 μl to positive control tube and 5 μl to no substrate tube) and take first time point immediately. The PNA positive control, no cofactor control and no substrate tubes are incubated for the total incubation time. 10. Remove 100 μl aliquots up to 9 different sampling points from 0 to 60 min (usually 0, 3, 5, 10, 15, 20, 30, 45 & 60 min) and terminate reaction. Longer incubation times can be used, but, after 120 min the microsomes deteriorate. The reaction may be terminated by addition of organic solvent, acid or base. At the end of the incubation process the no cofactor and no substrate controls in a similar manner i.e. terminate with the same reagent. 11. PNA Positive Control Procedure: • After the final sample has been taken, remove the positive control and add 1 ml 20% TCA to this tube. Also prepare a tube containing 250 μl of a PNP standard at 50 μM, and add 1 ml 20% TCA. Whirlimix both tubes and leave for approx 5 min to allow the protein to precipitate. • Centrifuge both tubes for approx 5 min in an instrument set at 3500 rpm. Remove 1 ml of supernatant and place into clean test tubes, discard the remainder. • Add 1 ml 10M NaOH to the supernatant, whirlimix, and leave to stand for approx min. Blank spectrophotometer with distilled water at 400 nm then measure absorbance of the PNP standard against distilled water. The microsomal 4-nitroanisole O-demethylase activity is calculated as follows: Calculation of Results
(§9) [formula] • The activity value from the incubation MUST be equal to or greater than 85% of the mean value of the batch used for the incubation to be valid. If this criteria is not met, then the incubation must be repeated. 11. Analyse samples (including no cofactor and no substrate control) by a specific assay for the substrate to determine the disappearance kinetics. Analysis Of Data […]

[2] = In vitro metabolism rate determination, rat liver microsome (RLM) assay; format: in vitro ADME; conditions: rat liver microsomes, substrate 1 μM; read-out: RLM (intrinsic clearance)
Description: as §1, §2, §3, §4, §5, §6, §7, §8, §9

MC4 receptor = MC4 receptor (Homo sapiens, UniProt P32245); assay: MC4 functional agonist potency (EC50), assay protocol E of US2005/0176772 / WO 2005/077935; format: cell-based; conditions: functional potency at the MC4 receptor
Sequence of MC4 receptor (P32245 whole entry): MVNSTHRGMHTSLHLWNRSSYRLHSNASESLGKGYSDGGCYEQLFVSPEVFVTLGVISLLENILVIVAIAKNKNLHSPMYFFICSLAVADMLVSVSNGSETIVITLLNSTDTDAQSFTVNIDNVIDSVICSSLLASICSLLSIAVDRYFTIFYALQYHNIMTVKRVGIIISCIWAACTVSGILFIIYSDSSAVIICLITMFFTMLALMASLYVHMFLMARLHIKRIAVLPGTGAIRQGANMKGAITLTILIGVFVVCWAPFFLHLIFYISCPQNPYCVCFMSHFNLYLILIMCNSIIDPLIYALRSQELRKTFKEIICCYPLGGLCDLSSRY
Description: The compounds of formula (I) of the present invention have utility as MCR4 agonists in the treatment of various disease states.
MC5 and MC4 EC50 activity was determined as described by assay protocols D and E, respectively, in US2005/0176772 (pages 28-30).

CYP3A4 = molecular target: T1, CYP3A4 (Homo sapiens, UniProt P08684); assay: High density drug-drug interactions (DDI) 3 μM cocktail screen in human liver microsomes; format: in vitro ADME; conditions: 3 uM test compound, pooled human liver microsomes, probe midazolam 2 μM; read-out: % Inhibition of 3A4 metabolism at 3 uM
T1 construct: utilizes human liver microsomes together with isoform-specific clinical drug probes; from tissue; host or cells: human liver microsomes
T1 sequence (P08684 whole entry, canonical isoform): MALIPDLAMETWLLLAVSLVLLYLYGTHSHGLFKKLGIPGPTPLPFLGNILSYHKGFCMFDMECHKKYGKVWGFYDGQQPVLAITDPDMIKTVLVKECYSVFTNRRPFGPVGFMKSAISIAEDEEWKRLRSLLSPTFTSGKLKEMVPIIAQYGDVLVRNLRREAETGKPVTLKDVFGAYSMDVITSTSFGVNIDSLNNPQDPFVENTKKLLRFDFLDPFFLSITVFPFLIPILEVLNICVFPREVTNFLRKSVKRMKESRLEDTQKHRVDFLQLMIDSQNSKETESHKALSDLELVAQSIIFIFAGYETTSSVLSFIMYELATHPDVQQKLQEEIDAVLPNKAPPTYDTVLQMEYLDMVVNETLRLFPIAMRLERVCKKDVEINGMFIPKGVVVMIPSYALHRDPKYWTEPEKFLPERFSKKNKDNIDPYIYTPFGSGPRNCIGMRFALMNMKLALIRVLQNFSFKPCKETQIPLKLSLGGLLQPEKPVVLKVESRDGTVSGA
Description: High Density Drug-Drug Interactions (DDI) 3 μM Cocktail Screen
A drug interaction is a situation in which a substance affects the activity of another drug, i.e. the effects are increased or decreased, or together they produce a new effect that neither produces on its own. Drug interactions may be the result of various processes but a relatively common one is where one drug affects the pharmacokinetics of another by inhibiting the cytochrome P450 that metabolises it. Because of the importance of these phenomena, assessment of the DDI potential for new chemical entities (NCEs) is considered important early on in the drug discovery process.
The DDI cocktail screen in human liver microsomes (HLM) is run in a fully automated fashion and the aim of the screen is to provide a single-point assessment of the DDI potential of new chemical entity (NCE; tested at 3 μM) against the 4 primary cytochrome P450 enzymes, 1A2, 2D6, 2C9 and 3A4.
The substrate cocktail approach for P450 DDI utilizes human liver microsomes together with isoform-specific clinical drug probes and permits the simultaneous measurement of the inhibition of P450 1A2, 2C9, 2D6 & 3A4 activities in a single incubation. This is run in high throughput with simultaneous detection of metabolites by LC-MS/MS. This method has been thoroughly tested and evaluated using standard compounds.
Appearance of the metabolite of each substrate is measured over time in the presence and absence of the NCE (test compound/inhibitor) at a concentration of 3 μM. The compounds are assessed for their inhibitory potential as a percentage value and interpreted using the following scheme.

human MC3 receptor = molecular target: T2, human MC3 receptor (Homo sapiens, UniProt P41968); assay: In vitro agonist potency (EC50) against melanocortin receptor type 3, cAMP in recombinant cell line; format: cell-based; conditions: cell line stably transfected with human MC3, 1 hour at 37° C.
T2 construct: stably transfected with full length cDNA encoding human MC1 or MC3 receptors; expressed in transfected cells; host or cells: Chinese hamster ovary cell line (MC3; 'respectively')
T2 sequence (P41968 whole entry): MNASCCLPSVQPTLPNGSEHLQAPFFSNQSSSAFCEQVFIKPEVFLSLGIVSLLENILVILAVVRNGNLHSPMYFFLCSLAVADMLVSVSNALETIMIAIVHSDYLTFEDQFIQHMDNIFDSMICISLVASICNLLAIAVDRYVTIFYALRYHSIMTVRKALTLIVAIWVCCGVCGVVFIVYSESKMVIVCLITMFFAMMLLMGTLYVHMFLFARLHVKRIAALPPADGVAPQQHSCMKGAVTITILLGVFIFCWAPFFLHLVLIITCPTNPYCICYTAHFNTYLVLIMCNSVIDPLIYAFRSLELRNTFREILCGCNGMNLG
Description: Measurement of In Vitro Agonist Potency (EC50) of Compounds Against Melanocortin Receptors Type 1 and 3 (MC1 and MC3).
Activation of melanocortin (MC) receptors by agonists results in activation of intracellular adenylate cyclase enzymes that synthesise the second messenger signalling molecule, adenosine 3′,5′-cyclic monophosphate (cAMP). Changes in cAMP levels following treatment of recombinant MC1 and MC3 cell lines with test compound were measured and an MC1 and MC3 potency estimate (EC50) calculated as follows: […]
Human embryonic kidney (HEK) or Chinese hamster ovary cell lines stably transfected with full length cDNA encoding human MC1 or MC3 receptors, respectively, were established using standard molecular biology methods. Test compounds were dissolved in dimethyl sulfoxide (DMSO) at 4 mM. 11 point half log unit increment dilution series of test compound, typically starting at 50 uM were prepared in a buffer comprised of phosphate buffered saline (PBS), 2.5% DMSO and 0.05% pluronic F-127 surfactant. Freshly cultured cells at 80-90% confluence were harvested and re-suspended in Dulbecco's Modified Eagle's Medium (DMEM). Cells (10,000 for MC3, 20,000 for MC1) were added to the test compound dilution series in a 384 well assay plate and incubated for 1 hour at 37° C. The relative cAMP concentration in each well was then measured using a β-galactosidase enzyme fragment complementation method purchased in kit form as the Discoverx cAMP II kit from GE Healthcare/Amersham Biosciences UK. In the case of MC1,3-Isobutyl-1-methylxanthine (IBMX) at a concentration of 750 μM was included in DMEM as the cells were re-suspended for assay. […] Sigmoidal curves were fitted to plots of log10 inhibitor concentration vs percent effect using a custom made software application called SIGHTS and EC50 estimates determined by the software as the concentration of test compound giving an effect half way between the bottom and top assymptopes of the sigmoidal dose response curve. Each experiment included an EC50 determination for alpha melanocyte stimulating hormone, which was used as a standard to track assay consistency and allow fair comparison between EC50 estimates obtained in different experiments.

MC4 receptor (MC4R) = molecular target: T3, MC4 receptor (MC4R) (Homo sapiens, UniProt P32245); assay: AGRP inhibition: competition binding vs [125I]AGRP(87-132) at CHO-CRE MC4R cell membranes; conditions: vs 0.3 nM [125I]AGRP(87-132)
T3 construct: expressed in transfected cells; host or cells: CHO-CRE MC4R cells (membranes)
T3 sequence (P32245 whole entry): as the sequence (P32245 whole entry) above
Description: Agouti related protein (AGRP) is a high affinity endogenous antagonist/inverse agonist for the MC4 receptor (Lu et al., 1994, Nature 371: 799-802; Oilman et al., 1997, Science 278: 135-138). […] It has been ascertained that this C-terminal fragment of AGRP contains the MC4R binding determinants (Yang et al., 1999, Mol Endocrinol 13: 148-155), therefore, compounds can be evaluated for their ability to inhibit AGRP binding to membranes from cells expressing the MC4R using a competition binding assay versus [^125I]AGRP(87-132). To this end cells expressing the MC4R were subject to homogenisation and the membrane fragment isolated by differential centrifugation. CHO-CRE MC4R cell membranes (12 μg protein) were incubated with 0.3 nM [^125I]AGRP(87-132) and 11 half-log concentrations of competitor ligand, in duplicate, in a total volume of 100 μl buffer (25 mM HEPES, 1 mM MgCl2, 2.5 mM CaCl2, 0.5% BSA pH 7.0). Non-specific binding was determined by the inclusion of 1 μM SHU9119. The reaction was initiated by the addition of membranes and plates were incubated at room temperature for 2 hours. The reaction was terminated by rapid filtration onto GF/C filters (presoaked in 1% PEI) using a vacuum harvester followed by five 200 μl washes of ice cold wash buffer (Binding buffer containing 500 mM NaCl). The filters were soaked in 50 μl scintillation fluid and the amount of radioactivity present was determined by liquid scintillation counting. Ki values were determined by data analysis using appropriate software.

microsomal CLint at 1 μM [1] [µL/min/mg]	microsomal CLint at 1 μM [2] [µL/min/mg]	EC50 (MC4 receptor) [nM]	inhibition at 3 μM (CYP3A4) [%]	EC50 (human MC3 receptor) [nM]	Ki (MC4 receptor (MC4R)) [nM]	Compound
< 7	< 19.8	11.9	60	16.4	–	C[C@@H]1CN(C(=O)[C@@H]2CN(c3ccc(Cl)nn3)C[C@H]2c2ccc(Cl)cn2)C[C@H](C)[C@@]1(O)c1ccc(F)cc1 [Example 3, (3R,4R,5S)-1-{[(3S,4S)-1-(6-Chloropyridazin-3-yl)-4-(5-chloropyridin-2-yl)pyrrolidin-3-yl]carbonyl}-4-(4-fluorophenyl)-3,5-dimethylpiperidin-4-ol]
14	–	111	–	–	417	COc1ccc([C@@H]2CN(c3cccnn3)C[C@H]2C(=O)N2C[C@@H](C)[C@](O)(c3ccc(F)cc3)[C@@H](C)C2)cn1 [Example 11]
> 352	88.5	91.6	–	–	–	COc1ccc(C2CN(c3cccnn3)CC2C(=O)N2CC(C)C(O)(c3ccccc3)C(C)C2)cn1 (stereo not drawn) [Example 12]
–	–	37.6	6	1020	106	COc1ccc([C@@H]2CN(c3cncc(F)c3)C[C@H]2C(=O)N2C[C@@H](C)[C@](O)(c3ccc(F)cc3)[C@@H](C)C2)cn1 [Example 13]
< 9	< 9.75	115	–	129	–	COc1ccc([C@@H]2CN(c3ccc(C#N)cn3)C[C@H]2C(=O)N2C[C@@H](C)[C@](O)(c3ccc(F)cc3)[C@@H](C)C2)cn1 [Example 14]
–	–	53.9	–	> 33400	–	COc1ccc(C2CN(c3cncc(C#N)c3)CC2C(=O)N2CC(C)C(O)(c3ccc(F)cc3)C(C)C2)cn1 (stereo not drawn) [Example 15]
105	36	7.54	59	–	40	C[C@@H]1CN(C(=O)[C@@H]2CN(c3ccc(C#N)nn3)C[C@H]2c2ccc(Cl)cn2)C[C@H](C)[C@@]1(O)c1ccccc1 [Example 29]
< 7	< 8.5	39.2	50	–	375	C[C@@H]1CN(C(=O)[C@@H]2CN(c3ccc(C#N)nn3)C[C@H]2c2ccc(F)cn2)C[C@H](C)[C@@]1(O)c1ccc(F)cc1 [Example 34]
< 7	17	168	59	–	1020	C[C@@H]1CN(C(=O)[C@@H]2CN(c3ccc(Cl)nn3)C[C@H]2c2ccc(F)cn2)C[C@H](C)[C@@]1(O)c1ccc(F)cc1 [Example 36]
< 7	< 8.5	102	58	–	336	C[C@@H]1CN(C(=O)[C@@H]2CN(c3ccc(=O)[nH]n3)C[C@H]2c2ccc(F)cn2)C[C@H](C)[C@@]1(O)c1ccc(F)cc1 [Example 38]
–	–	284	27	> 9630	2130	COc1ccc([C@@H]2CN(c3ccc(Cl)nn3)C[C@H]2C(=O)N2C[C@@H](C)[C@](O)(c3ccc(F)cc3)[C@@H](C)C2)nc1 [Example 44]
